Test [1] addresses Botulinum neurotoxin type A (Clostridium botulinum (strain Hall / ATCC 3502 / NCTC 13319 / Type A)) (UniProt P0DPI1). The experiment in a line: Inhibition of Clostridium botulinum strain Hall A hyper botulinum neurotoxin type A1 in rat spinal cord cells assessed as intact SNAP25 protein level at 200 uM after 24 hrs by Western blot using monoclonal anti-SNAP25 antibody. Format: cell-based. (In general: Immunoblotting shows a protein as a band on a membrane.)

Test [2] has the same target. The test is described as follows: Inhibition of Clostridium botulinum strain Hall A hyper botulinum neurotoxin type A1 in rat spinal cord cells assessed as intact SNAP25 protein level at 1 mM after 24 hrs by Western blot using monoclonal anti-SNAP25 antibody. Format: cell-based.

This passage reports inhibition results from ChEMBL document CHEMBL1159076, “Toosendanin: synthesis of the AB-ring and investigations of its anti-botulinum properties (Part II)” (Bioorg Med Chem, 2010).

Molecules are shown by their SMILES. Activity calls are given as the source filed them. The rule behind the calls is not given here.

Chain of Botulinum neurotoxin type A (Clostridium botulinum (strain Hall / ATCC 3502 / NCTC 13319 / Type A)) (P0DPI1 2-448 limits assumed): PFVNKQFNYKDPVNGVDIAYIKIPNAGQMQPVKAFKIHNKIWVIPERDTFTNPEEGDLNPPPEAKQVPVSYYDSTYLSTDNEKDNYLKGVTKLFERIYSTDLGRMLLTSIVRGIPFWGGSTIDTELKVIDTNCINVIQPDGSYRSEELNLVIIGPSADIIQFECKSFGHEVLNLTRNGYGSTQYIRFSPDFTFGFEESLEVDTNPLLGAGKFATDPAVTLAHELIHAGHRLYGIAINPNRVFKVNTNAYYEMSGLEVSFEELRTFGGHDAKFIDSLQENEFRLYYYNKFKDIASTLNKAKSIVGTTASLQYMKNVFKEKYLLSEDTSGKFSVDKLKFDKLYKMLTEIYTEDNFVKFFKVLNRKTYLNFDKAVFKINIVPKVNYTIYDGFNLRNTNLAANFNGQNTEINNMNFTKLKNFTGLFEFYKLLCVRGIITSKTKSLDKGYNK

In the case of `CC(=O)O[C@@H]1C[C@H](O)[C@@]23CO[C@@H](O)[C@]1(C)[C@@H]2C[C@@H](O)[C@]1(C)[C@@H]3C(=O)[C@H](OC(C)=O)[C@@]2(C)[C@H](c3ccoc3)C[C@H]3O[C@]321`, the inhibition entry in test [1] was “Active”.
In the case of `CC(=O)O[C@@H]1C[C@H](O)[C@]23CC[C@H](O)C[C@H]2[C@H]1[C@H](O)OC3`, the inhibition entry in test [2] was “inactive”.
Turning to `CC(=O)O[C@@H]1C[C@H](O)[C@]23CC[C@@H](O)C[C@H]2[C@H]1[C@H](O)OC3`, in test [2], the inhibition result is “inactive”.
